The source made the active and inactive calls. The rule behind the calls is not given here. Some results are limits rather than exact numbers.

In experiment [1] the target is Receptor tyrosine-protein kinase erbB-2 (Homo sapiens) (UniProt P04626). The experiment can be described thus: Inhibition of HER2 at 1 mM.
In experiment [2] the target is Epidermal growth factor receptor (Homo sapiens) (UniProt P00533). The experiment can be described thus: Inhibition of EGFR at 1 mM.
Sequence of Epidermal growth factor receptor (Homo sapiens) (P00533 whole entry): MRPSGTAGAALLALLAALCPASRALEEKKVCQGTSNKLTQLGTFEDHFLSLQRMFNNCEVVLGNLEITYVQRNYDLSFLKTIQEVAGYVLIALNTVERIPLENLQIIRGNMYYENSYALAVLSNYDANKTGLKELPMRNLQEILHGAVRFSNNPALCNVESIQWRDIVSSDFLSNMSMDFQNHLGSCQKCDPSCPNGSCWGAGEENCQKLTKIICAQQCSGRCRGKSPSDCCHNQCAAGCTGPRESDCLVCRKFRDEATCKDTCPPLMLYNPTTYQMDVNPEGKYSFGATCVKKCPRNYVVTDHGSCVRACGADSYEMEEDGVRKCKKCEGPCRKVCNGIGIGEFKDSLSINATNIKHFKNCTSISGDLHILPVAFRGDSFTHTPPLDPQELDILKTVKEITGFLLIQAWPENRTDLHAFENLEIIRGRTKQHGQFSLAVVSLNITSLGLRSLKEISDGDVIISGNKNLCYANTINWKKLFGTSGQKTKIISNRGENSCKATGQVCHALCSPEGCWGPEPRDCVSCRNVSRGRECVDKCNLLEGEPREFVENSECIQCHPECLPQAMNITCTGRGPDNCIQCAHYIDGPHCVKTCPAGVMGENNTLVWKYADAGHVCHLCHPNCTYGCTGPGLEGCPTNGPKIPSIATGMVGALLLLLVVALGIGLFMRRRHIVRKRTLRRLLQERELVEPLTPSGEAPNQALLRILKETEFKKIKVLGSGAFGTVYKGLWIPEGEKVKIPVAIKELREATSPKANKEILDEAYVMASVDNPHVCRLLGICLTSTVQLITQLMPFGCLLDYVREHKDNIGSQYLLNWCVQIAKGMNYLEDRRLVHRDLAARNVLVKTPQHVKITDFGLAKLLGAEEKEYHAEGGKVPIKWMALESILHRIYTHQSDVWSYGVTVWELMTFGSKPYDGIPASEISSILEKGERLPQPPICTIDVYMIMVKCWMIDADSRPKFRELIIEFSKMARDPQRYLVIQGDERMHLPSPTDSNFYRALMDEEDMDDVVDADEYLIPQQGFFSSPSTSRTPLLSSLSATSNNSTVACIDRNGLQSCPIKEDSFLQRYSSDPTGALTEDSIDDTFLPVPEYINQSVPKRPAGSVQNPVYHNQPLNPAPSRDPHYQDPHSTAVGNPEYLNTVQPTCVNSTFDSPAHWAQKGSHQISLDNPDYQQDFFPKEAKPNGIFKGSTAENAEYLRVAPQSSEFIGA

Sequence of Receptor tyrosine-protein kinase erbB-2 (Homo sapiens) (P04626 whole entry): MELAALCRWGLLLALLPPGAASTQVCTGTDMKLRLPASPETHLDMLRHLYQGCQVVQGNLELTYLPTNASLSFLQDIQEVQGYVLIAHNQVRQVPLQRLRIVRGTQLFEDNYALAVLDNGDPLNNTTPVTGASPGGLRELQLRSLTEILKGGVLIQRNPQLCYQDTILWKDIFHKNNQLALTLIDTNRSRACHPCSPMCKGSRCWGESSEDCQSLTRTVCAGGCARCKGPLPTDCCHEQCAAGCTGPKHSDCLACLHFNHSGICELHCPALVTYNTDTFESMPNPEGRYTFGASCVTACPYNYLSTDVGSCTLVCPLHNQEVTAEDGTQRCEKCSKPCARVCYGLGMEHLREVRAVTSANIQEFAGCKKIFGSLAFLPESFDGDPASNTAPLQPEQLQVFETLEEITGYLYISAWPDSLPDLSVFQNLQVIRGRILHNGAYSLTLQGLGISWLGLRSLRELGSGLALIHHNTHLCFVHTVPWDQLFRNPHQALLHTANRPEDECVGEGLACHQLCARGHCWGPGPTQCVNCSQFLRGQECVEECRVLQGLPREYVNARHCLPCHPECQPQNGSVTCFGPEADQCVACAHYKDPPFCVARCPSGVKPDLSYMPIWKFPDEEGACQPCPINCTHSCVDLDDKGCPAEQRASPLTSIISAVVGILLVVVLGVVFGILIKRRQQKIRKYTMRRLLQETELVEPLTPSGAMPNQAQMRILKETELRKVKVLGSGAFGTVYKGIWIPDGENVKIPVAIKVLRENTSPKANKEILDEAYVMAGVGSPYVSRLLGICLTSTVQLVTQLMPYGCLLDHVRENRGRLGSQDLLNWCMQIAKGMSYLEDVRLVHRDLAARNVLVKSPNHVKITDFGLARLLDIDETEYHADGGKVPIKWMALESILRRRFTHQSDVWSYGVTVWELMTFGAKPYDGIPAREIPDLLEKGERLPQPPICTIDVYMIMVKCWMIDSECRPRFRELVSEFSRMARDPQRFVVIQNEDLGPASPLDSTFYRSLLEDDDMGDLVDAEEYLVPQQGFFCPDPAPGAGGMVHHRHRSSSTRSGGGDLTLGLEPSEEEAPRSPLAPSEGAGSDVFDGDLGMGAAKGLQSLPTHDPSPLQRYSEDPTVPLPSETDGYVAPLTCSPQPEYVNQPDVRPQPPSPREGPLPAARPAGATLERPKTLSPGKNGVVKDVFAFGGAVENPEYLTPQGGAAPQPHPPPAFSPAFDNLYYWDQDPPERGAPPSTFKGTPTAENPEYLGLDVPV

On to `CC1=CCC[C@H]2[C@](C)(CC3=C(O)C(=O)C=C(NCCC(C)C)C3=O)[C@@H](C)CC[C@]12C`, for which the inhibition (usually the percentage by which the read-out fell short of the control) in experiment [1] was 66%. The inhibition result in experiment [2] was “inactive”.
As for `CC[C@H](C)CNC1=CC(=O)C(O)=C(C[C@]2(C)[C@@H](C)CC[C@]3(C)C(C)=CCC[C@@H]23)C1=O`, the inhibition entry in experiment [1] and in experiment [2] was “inactive” each time.
Regarding `CC1=CCC[C@H]2[C@](C)(CC3=C(O)C(=O)C=C(NCC(C)C)C3=O)[C@@H](C)CC[C@]12C`, in experiment [1], the inhibition stood at 59%. In addition, the inhibition result in experiment [2] is “inactive”.
As to `CC(C)CCNC1=CC(=O)C(O)=C(C[C@@]2(C)[C@@H]3CCCC(C)(C)C3=CC[C@@H]2C)C1=O`, the inhibition result in experiment [1] and in experiment [2] was “inactive” throughout.
Consider `C=C1CCC[C@H]2[C@](C)(CC3=C(O)C(=O)C=C(NC[C@@H](C)CC)C3=O)[C@@H](C)CC[C@]12C`, for which the inhibition result in experiment [1] and in experiment [2] was “inactive” throughout.
`CC[C@H](C)CNC1=CC(=O)C(O)=C(C[C@@]2(C)[C@@H]3CCCC(C)(C)C3=CC[C@@H]2C)C1=O`: the inhibition entry in experiment [1] and in experiment [2] was “inactive” throughout.
Take `CC1=CCC[C@H]2[C@](C)(CC3=C(O)C(=O)C=C(NCCc4ccccc4)C3=O)[C@@H](C)CC[C@]12C`: the inhibition result in experiment [1] and in experiment [2] was “inactive” each time.
With `C[C@H]1CC=C2[C@@H](CCCC2(C)C)[C@]1(C)CC1=C(O)C(=O)C=C(NCCc2ccccc2)C1=O`, the inhibition result in experiment [1] is “inactive”. The molecule further displayed an inhibition in experiment [2] of 76%.
On to `CC1=CCC[C@H]2[C@](C)(CC3=C(O)C(=O)C=C(NCCS(=O)(=O)O)C3=O)[C@@H](C)CC[C@]12C`, for which the inhibition was 52% in experiment [1] and over 99% in experiment [2].

These data come from ChEMBL document CHEMBL1154843, “Nakijiquinones J--R, sesquiterpenoid quinones with an amine residue from okinawan marine sponges” (J Nat Prod, 2010).
